This test has as its target T1, human PD-1 / PD-L1-Ig binding on Jurkat cell line over-expressing human PD-1 (Jurkat-PD-1) (Homo sapiens, UniProt Q15116).
T1 construct: expressed in transfected cells; host or cells: Jurkat
The test is described as follows: Jurkat-PD-1 Cell Binding High-Content Screening Assay (CBA). It is filed as cell-based. Particulars: Jurkat-PD-1 cells, PE-labeled PD-L1-Ig 20 nM final; read-out: Jurkat HPD1_PDL1 IC50. The method, boiled down: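 Compounds were preincubated with Jurkat-hPD-1 cells in DMEM plus 10% fetal calf serum for 2 h at 37° C. Phycoerythrin-labeled PD-L1-Ig (20 nM final) was then added for 1 hour. Cells were fixed in 4% paraformaldehyde with Hoechst 33342, and bound fluorescence was quantified by high-content imaging.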

SMILES strings stand for the structures. Where a SMILES comes first, the peptide text is derived from it. Bridges are numbered along the chain shown (N, C = ends). [ ]: non-standard residue; d: D form. The star is where a group is joined. Phe(4-COOH) = N[C@@H](Cc1ccc(C(=O)O)cc1)C(=O)O; Bip = N[C@@H](Cc1ccc(-c2ccccc2)cc1)C(=O)O; Phe(3-Me) = Cc1cccc(C[C@H](N)C(=O)O)c1; Val(3-OH) = CC(C)(O)[C@H](N)C(=O)O; 4Pal = N[C@@H](Cc1ccncc1)C(=O)O; Cha = N[C@@H](CC1CCCCC1)C(=O)O; Cit = NC(=O)NCCC[C@H](N)C(=O)O; dCha = N[C@H](CC1CCCCC1)C(=O)O; Ahp(2) = CCCCC[C@H](N)C(=O)O; Carboxymethyl = O=C(O)C*; Orn = NCCC[C@H](N)C(=O)O; Pra = C#CC[C@H](N)C(=O)O; Dab = NCC[C@H](N)C(=O)O; Nva = CCC[C@H](N)C(=O)O; Dap = NC[C@H](N)C(=O)O

T1 sequence (Q15116 25-288): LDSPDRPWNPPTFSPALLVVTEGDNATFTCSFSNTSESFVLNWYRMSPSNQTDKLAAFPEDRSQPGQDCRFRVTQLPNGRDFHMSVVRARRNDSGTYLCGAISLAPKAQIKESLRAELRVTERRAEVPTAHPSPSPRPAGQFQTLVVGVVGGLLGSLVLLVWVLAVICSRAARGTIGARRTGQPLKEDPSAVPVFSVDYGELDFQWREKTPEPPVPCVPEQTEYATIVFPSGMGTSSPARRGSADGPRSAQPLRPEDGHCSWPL

As a reminder, the IC50 is the point on the concentration scale where inhibition reaches its midpoint. Turning to `CCC(C)[C@@H]1NC(=O)[C@H](Cc2ccc(-c3ccccc3)cc2)NC(=O)[C@H](C(C)C)NC(=O)[C@H](Cc2cccc(C)c2)NC(=O)[C@H](CC(=O)O)NC(=O)[C@H](Cc2ccc(-c3cccc(C(=O)O)c3)cc2)NC(=O)[C@H](Cc2ccccc2)NC(=O)CSC[C@@H](C(=O)N[C@@H](C)C(N)=O)NC(=O)[C@H]([C@@H](C)O)NC(=O)[C@H](C(C)C)NC(=O)[C@H](CC2CCCCC2)NC(=O)[C@H](CCN)NC(=O)[C@@H](CC(C)C)NC(=O)[C@H](CCCN)NC1=O` (stereo partly drawn) [Compound 2223], the half-maximal inhibitory concentration (IC50) worked out at 74.8 nM. The result for `CCC(C)[C@@H]1NC(=O)[C@H](Cc2ccc(-c3ccccc3)cc2)NC(=O)[C@H](C(C)C)NC(=O)[C@H](Cc2cccc(C)c2)NC(=O)[C@H](CC(=O)O)NC(=O)[C@H](Cc2ccc(C(=O)O)cc2)NC(=O)[C@H](CCCNC(=N)N)NC(=O)CSC[C@@H](C(=O)N[C@@H](C)C(N)=O)NC(=O)[C@H](C(C)O)NC(=O)[C@H](C(C)C)NC(=O)[C@H](CC2CCCCC2)NC(=O)[C@H](CCN)NC(=O)[C@@H](CC(C)C)NC(=O)[C@H](CCCN)NC1=O` (stereo partly drawn) [Compound 2538] reads 9.7 nM; that for `CC(C)C[C@@H]1NC(=O)[C@H](Cc2c[nH]c3ccccc23)NC(=O)[C@H](CC(=O)O)NC(=O)[C@H](Cc2ccc(OCC(=O)O)cc2)NC(=O)[C@H](CN)NC(=O)CSC[C@@H](C(=O)NCC(N)=O)NC(=O)[C@H](CO)NC(=O)[C@H](C(C)C)NC(=O)[C@H](CC2CCCCC2)NC(=O)[C@H](CCN)NC(=O)[C@@H](CC(C)C)NC(=O)[C@H](CCCN)NC(=O)[C@H](C(C)C)NC(=O)[C@H](Cc2ccc(-c3ccccc3)cc2)NC1=O` [Compound 1403] ({CH2CO}-[Dap]Y(Carboxymethyl)DWL[Bip]V[Orn][dL][Dab][Cha]VSCG-NH2; thioether N-14), 5.9 nM. The result for `CC(C)[C@@H]1NC(=O)[C@H](Cc2c[nH]c3ccccc23)NC(=O)[C@H](CC(=O)O)NC(=O)[C@H](Cc2ccncc2)NC(=O)[C@H](CN)NC(=O)CSC[C@@H](C(=O)N[C@@H](C)C(N)=O)NC(=O)[C@H]([C@@H](C)O)NC(=O)[C@H](C(C)C)NC(=O)[C@H](CC2CCCCC2)NC(=O)[C@H](CCN)NC(=O)[C@@H](CC2CCCCC2)NC(=O)[C@H](CCCN)NC(=O)[C@H](CCCNC(N)=O)NC(=O)[C@H](Cc2ccc(-c3ccccc3)cc2)NC1=O` [Compound 1646] ({CH2CO}-[Dap][4Pal]DWV[Bip][Cit][Orn][dCha][Dab][Cha]VTCA-NH2; thioether N-14) reads 28.1 nM. For `CCCC[C@H]1NC(=O)[C@H](CCCN)NC(=O)[C@H](CCC(=O)O)NC(=O)[C@H](Cc2ccc(-c3ccccc3)cc2)NC(=O)[C@H](C(C)C)NC(=O)[C@H](Cc2c[nH]c3ccccc23)NC(=O)[C@H](CC(=O)O)NC(=O)[C@H](Cc2ccc(C(=O)O)cc2)NC(=O)[C@H](Cc2ccncc2)NC(=O)CSC[C@@H](C(=O)N[C@@H](C)C(N)=O)NC(=O)[C@H]([C@@H](C)O)NC(=O)[C@H](C(C)C)NC(=O)[C@H](CC2CCCCC2)NC(=O)[C@H](CCN)NC1=O` [Compound 1450] the value was 7.6 nM; for `Cc1cccc(C[C@@H]2NC(=O)[C@H](CC(=O)O)NC(=O)[C@H](Cc3ccc(C(=O)O)cc3)NC(=O)[C@H](Cc3ccncc3)NC(=O)CSC[C@@H](C(=O)N[C@@H](CCN)C(N)=O)NC(=O)[C@H](CO)NC(=O)[C@H](C(C)(C)O)NC(=O)[C@H](CC3CCCCC3)NC(=O)[C@H](CCN)NC(=O)[C@@H](CC(C)C)NC(=O)[C@H](CCCN)NC(=O)[C@H](Cc3ccc(OCC(=O)O)cc3)NC(=O)[C@H](Cc3ccc(-c4ccccc4)cc3)NC(=O)[C@H](Cc3ccc(OCC(=O)O)cc3)NC2=O)c1` [Compound 2293] ({CH2CO}-[4Pal][Phe(4-COOH)]D[Phe(3-Me)]Y(Carboxymethyl)[Bip]Y(Carboxymethyl)[Orn][dL][Dab][Cha][Val(3-OH)]SC[Dab]-NH2; thioether N-14), 5.2 nM; for `CC[C@H](C)[C@@H]1NC(=O)[C@H](Cc2ccc(-c3ccccc3)cc2)NC(=O)[C@H](C(C)C)NC(=O)[C@H](Cc2c[nH]c3ccccc23)NC(=O)[C@H](CC(=O)O)NC(=O)[C@H](Cc2ccc(OCC(=O)O)cc2)NC(=O)[C@H](CN)NC(=O)CSC[C@@H](C(=O)N[C@@H](C)C(N)=O)NC(=O)[C@H]([C@@H](C)O)NC(=O)[C@H](C(C)C)NC(=O)[C@H](CC2CCCCC2)NC(=O)[C@H](Cc2cnc[nH]2)NC(=O)[C@@H](CC(C)C)NC(=O)[C@H](CCCN)NC1=O` [Compound 1589], 16.4 nM. With `C#CC[C@H](NC(=O)[C@@H]1CSCC(=O)N[C@@H](CCC)C(=O)N[C@@H](Cc2ccc(OCC(=O)O)cc2)C(=O)N[C@@H](CC(=O)O)C(=O)N[C@@H](Cc2cccc(C)c2)C(=O)N[C@@H](Cc2ccc(OCC(=O)O)cc2)C(=O)N[C@@H](Cc2ccc(-c3ccccc3)cc2)C(=O)N[C@@H](Cc2ccc(OCC(=O)O)cc2)C(=O)N[C@@H](CCCN)C(=O)N[C@H](CC(C)C)C(=O)N[C@@H](CCN)C(=O)N[C@@H](CC2CCCCC2)C(=O)N[C@@H](C(C)C)C(=O)N[C@@H](CCC(=O)O)C(=O)N1)C(=O)O` [Compound 2702] ({CH2CO}-[Nva]Y(Carboxymethyl)D[Phe(3-Me)]Y(Carboxymethyl)[Bip]Y(Carboxymethyl)[Orn][dL][Dab][Cha]VEC[Pra]-OH; thioether N-14), the IC50 was 50.5 nM.

On to `CC(C)C[C@@H]1NC(=O)[C@H](CCCNC(=N)N)NC(=O)[C@@H](CC(C)C)NC(=O)[C@@H](CCCCN)NC(=O)[C@H](CCCNC(=N)N)NC(=O)[C@H](Cc2ccc(-c3ccccc3)cc2)NC(=O)[C@H](C(C)C)NC(=O)[C@H](Cc2c[nH]c3ccccc23)NC(=O)[C@H](CC(=O)O)NC(=O)[C@H](Cc2ccc(O)cc2)NC(=O)[C@H](CC(N)=O)NC(=O)CSC[C@@H](C(=O)N[C@@H](C)C(N)=O)NC(=O)[C@H]([C@@H](C)O)NC(=O)[C@H](C(C)C)NC1=O` [Compound 1013] ({CH2CO}-NYDWV[Bip]R[dK][dL]RLVTCA-NH2; thioether N-14), for which the half-inhibitory concentration (IC50) was found to be 129 nM. For `Cc1cccc(C[C@@H]2NC(=O)[C@H](CC(=O)O)NC(=O)[C@H](Cc3ccc(C(=O)O)cc3)NC(=O)[C@H](Cc3ccncc3)NC(=O)CSC[C@@H](C(=O)N[C@H](CC(N)=O)C(N)=O)NC(=O)[C@H](CO)NC(=O)[C@H](C(C)C)NC(=O)[C@H](CC3CCCCC3)NC(=O)[C@H](CCN)NC(=O)[C@@H](CC(C)C)NC(=O)[C@H](CCCN)NC(=O)[C@H](Cc3ccc(O)cc3)NC(=O)[C@H](Cc3ccc(-c4ccccc4)cc3)NC(=O)[C@H](Cc3ccc(O)cc3)NC2=O)c1` [Compound 2286] ({CH2CO}-[4Pal][Phe(4-COOH)]D[Phe(3-Me)]Y[Bip]Y[Orn][dL][Dab][Cha]VSC[dN]-NH2; thioether N-14) the value was 8.9 nM; for `CC(C)[C@@H]1NC(=O)[C@H](Cc2c[nH]c3ccccc23)NC(=O)[C@H](CC(=O)O)NC(=O)[C@H](Cc2ccc(OCC(=O)O)cc2)NC(=O)[C@H](CN)NC(=O)CSC[C@@H](C(=O)N[C@@H](C)C(N)=O)NC(=O)[C@H]([C@@H](C)O)NC(=O)[C@H](C(C)C)NC(=O)[C@H](CC2CCCCC2)NC(=O)[C@H](CCN)NC(=O)[C@@H](CC2CCCCC2)NC(=O)[C@H](CCCN)NC(=O)[C@H](CCCNC(N)=O)NC(=O)[C@H](Cc2ccc(-c3ccccc3)cc2)NC1=O` [Compound 1643] ({CH2CO}-[Dap]Y(Carboxymethyl)DWV[Bip][Cit][Orn][dCha][Dab][Cha]VTCA-NH2; thioether N-14), 14.5 nM. For `CCCCC[C@@H]1NC(=O)[C@H](Cc2c[nH]c3ccccc23)NC(=O)[C@H](CC(=O)O)NC(=O)[C@H](Cc2ccc(OCC(=O)O)cc2)NC(=O)[C@H](CN)NC(=O)CSC[C@@H](C(=O)N[C@@H](C)C(N)=O)NC(=O)[C@H]([C@@H](C)O)NC(=O)[C@H](C(C)C)NC(=O)[C@H](CC2CCCCC2)NC(=O)[C@H](CCN)NC(=O)[C@@H](CC(C)C)NC(=O)[C@H](CCCN)NC(=O)[C@H](CCCNC(N)=O)NC(=O)[C@H](Cc2ccc(-c3ccccc3)cc2)NC1=O` [Compound 1360] ({CH2CO}-[Dap]Y(Carboxymethyl)DW[Ahp(2)][Bip][Cit][Orn][dL][Dab][Cha]VTCA-NH2; thioether N-14) the value was 10.8 nM; for `CC(C)C[C@@H]1NC(=O)[C@H](CCN)NC(=O)[C@@H](CC(C)C)NC(=O)[C@H](C)NC(=O)[C@H](C(C)C)NC(=O)[C@H](Cc2ccc(-c3ccccc3)cc2)NC(=O)[C@H](C(C)C)NC(=O)[C@H](Cc2c[nH]c3ccccc23)NC(=O)[C@H](CC(=O)O)NC(=O)[C@H](Cc2ccc(O)cc2)NC(=O)[C@H](CC(N)=O)NC(=O)CSC[C@@H](C(=O)N[C@@H](C)C(N)=O)NC(=O)[C@H]([C@@H](C)O)NC(=O)[C@H](C(C)C)NC1=O` [Compound 1014] ({CH2CO}-NYDWV[Bip]VA[dL][Dab]LVTCA-NH2; thioether N-14), 16.7 nM; for `Cc1cccc(C[C@@H]2NC(=O)[C@H](CC(=O)O)NC(=O)[C@H](Cc3ccc(C(=O)O)cc3)NC(=O)[C@H](Cc3ccncc3)NC(=O)CSC[C@@H](C(=O)N[C@@H](C)C(N)=O)NC(=O)[C@H]([C@@H](C)O)NC(=O)[C@H](C(C)C)NC(=O)[C@H](CC(C)C)NC(=O)[C@H](CCN)NC(=O)[C@@H](CC(C)C)NC(=O)[C@H](CCCN)NC(=O)[C@H](CCCNC(N)=O)NC(=O)[C@H](Cc3ccc(-c4ccccc4)cc3)NC(=O)[C@H](C(C)C)NC2=O)c1` [Compound 1178] ({CH2CO}-[4Pal][Phe(4-COOH)]D[Phe(3-Me)]V[Bip][Cit][Orn][dL][Dab]LVTCA-NH2; thioether N-14), 4.1 nM. For `C#CC[C@H](NC(=O)CNC(=O)[C@@H]1CSCC(=O)N[C@@H](CN)C(=O)N[C@@H](Cc2ccc(OCC(=O)O)cc2)C(=O)N[C@@H](CC(=O)O)C(=O)N[C@@H](Cc2cccc(C)c2)C(=O)N[C@@H](C(C)C)C(=O)N[C@@H](Cc2ccc(-c3ccccc3)cc2)C(=O)N[C@@H](CCCNC(N)=O)C(=O)N[C@@H](CCCN)C(=O)N[C@H](CC(C)C)C(=O)N[C@@H](CCN)C(=O)N[C@@H](CC2CCCCC2)C(=O)N[C@@H](C(C)C)C(=O)N[C@@H]([C@@H](C)O)C(=O)N1)C(=O)O` [Compound 2260] ({CH2CO}-[Dap]Y(Carboxymethyl)D[Phe(3-Me)]V[Bip][Cit][Orn][dL][Dab][Cha]VTCG[Pra]-OH; thioether N-14) the value was 28.1 nM.

Source of the values: patent publication US20250163104A1, “MACROCYCLIC IMMUNOMODULATORS” (priority 2021, published 2025).
